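Briefly, cells in 96-well plates were exposed to five compound concentrations for 48 h, and endpoints were estimated by linear interpolation. TGI denotes the concentration required for complete inhibition of growth.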
Key:
Assay in all cases: NCI-60 cell line screen, 48 h
786-0 renal = tested on: 786-0 renal
A498 renal = tested on: A498 renal
A549 NSCLC = tested on: A549 NSCLC
ACHN renal = tested on: ACHN renal
CAKI-1 renal = tested on: CAKI-1 renal
CCRF-CEM leukemia = tested on: CCRF-CEM leukemia
COLO 205 colon = tested on: COLO 205 colon
DU-145 prostate = tested on: DU-145 prostate
EKVX NSCLC = tested on: EKVX NSCLC
HCC-2998 colon = tested on: HCC-2998 colon
HCT-116 colon = tested on: HCT-116 colon
HCT-15 colon = tested on: HCT-15 colon
HL-60(TB) leukemia = tested on: HL-60(TB) leukemia
HOP-62 NSCLC = tested on: HOP-62 NSCLC
HOP-92 NSCLC = tested on: HOP-92 NSCLC
HS 578T breast = tested on: HS 578T breast
HT29 colon = tested on: HT29 colon
K-562 leukemia = tested on: K-562 leukemia
KM12 colon = tested on: KM12 colon
LOX IMVI melanoma = tested on: LOX IMVI melanoma
M14 melanoma = tested on: M14 melanoma
MALME-3M melanoma = tested on: MALME-3M melanoma
MCF7 breast = tested on: MCF7 breast
MDA-MB-231 breast = tested on: MDA-MB-231 breast
MDA-MB-435 = tested on: MDA-MB-435
MDA-N = tested on: MDA-N
MOLT-4 leukemia = tested on: MOLT-4 leukemia
NCI-H226 lung = tested on: NCI-H226 lung
NCI-H23 lung = tested on: NCI-H23 lung
NCI-H460 lung = tested on: NCI-H460 lung
NCI-H522 lung = tested on: NCI-H522 lung
NCI/ADR-RES ovarian = tested on: NCI/ADR-RES ovarian
OVCAR-3 ovarian = tested on: OVCAR-3 ovarian
OVCAR-5 ovarian = tested on: OVCAR-5 ovarian
OVCAR-8 ovarian = tested on: OVCAR-8 ovarian
PC-3 prostate = tested on: PC-3 prostate
RPMI-8226 leukemia = tested on: RPMI-8226 leukemia
RXF 393 renal = tested on: RXF 393 renal
SF-268 CNS = tested on: SF-268 CNS
SF-295 CNS = tested on: SF-295 CNS
SF-539 CNS = tested on: SF-539 CNS
SK-MEL-28 melanoma = tested on: SK-MEL-28 melanoma
SK-MEL-5 melanoma = tested on: SK-MEL-5 melanoma
SK-OV-3 ovarian = tested on: SK-OV-3 ovarian
SN12C renal = tested on: SN12C renal
SNB-19 CNS = tested on: SNB-19 CNS
SNB-75 CNS = tested on: SNB-75 CNS
SW-620 colon = tested on: SW-620 colon
T-47D breast = tested on: T-47D breast
TK-10 renal = tested on: TK-10 renal
U251 CNS = tested on: U251 CNS
UACC-257 melanoma = tested on: UACC-257 melanoma
UACC-62 melanoma = tested on: UACC-62 melanoma
UO-31 renal = tested on: UO-31 renal
BT-549 breast = tested on: BT-549 breast
IGROV1 ovarian = tested on: IGROV1 ovarian
OVCAR-4 ovarian = tested on: OVCAR-4 ovarian
SK-MEL-2 melanoma = tested on: SK-MEL-2 melanoma
SR leukemia = tested on: SR leukemia

## Cc1ccc2c(/C=C/c3ccc(N(C)C)cc3)ccnc2c1C
786-0 renal
  TGI: > 100 µM
A498 renal
  TGI: > 100 µM
A549 NSCLC
  TGI: > 100 µM
ACHN renal
  TGI: 96.7 µM
CAKI-1 renal
  TGI: > 100 µM
CCRF-CEM leukemia
  TGI: > 100 µM
COLO 205 colon
  TGI: 55.6 µM
DU-145 prostate
  TGI: > 100 µM
EKVX NSCLC
  TGI: > 100 µM
HCC-2998 colon
  TGI: 95.6 µM
HCT-116 colon
  TGI: > 100 µM
HCT-15 colon
  TGI: > 100 µM
HL-60(TB) leukemia
  TGI: 80.7 µM
HOP-62 NSCLC
  TGI: > 100 µM
HOP-92 NSCLC
  TGI: 57.1 µM
HS 578T breast
  TGI: > 100 µM
HT29 colon
  TGI: 62.3 µM
K-562 leukemia
  TGI: > 100 µM
KM12 colon
  TGI: 72.3 µM
LOX IMVI melanoma
  TGI: > 100 µM
M14 melanoma
  TGI: > 100 µM
MALME-3M melanoma
  TGI: 40.6 µM
MCF7 breast
  TGI: 61.3 µM
MDA-MB-231 breast
  TGI: > 100 µM
MDA-MB-435
  TGI: > 100 µM
MDA-N
  TGI: > 100 µM
MOLT-4 leukemia
  TGI: > 100 µM
NCI-H226 lung
  TGI: > 100 µM
NCI-H23 lung
  TGI: > 100 µM
NCI-H460 lung
  TGI: > 100 µM
NCI-H522 lung
  TGI: 63.9 µM
NCI/ADR-RES ovarian
  TGI: > 100 µM
OVCAR-3 ovarian
  TGI: > 100 µM
OVCAR-5 ovarian
  TGI: > 100 µM
OVCAR-8 ovarian
  TGI: 60.8 µM
PC-3 prostate
  TGI: 64.3 µM
RPMI-8226 leukemia
  TGI: 31 µM
RXF 393 renal
  TGI: 48.4 µM
SF-268 CNS
  TGI: > 100 µM
SF-295 CNS
  TGI: > 100 µM
SF-539 CNS
  TGI: > 100 µM
SK-MEL-28 melanoma
  TGI: 52.9 µM
SK-MEL-5 melanoma
  TGI: 43.2 µM
SK-OV-3 ovarian
  TGI: 67.9 µM
SN12C renal
  TGI: > 100 µM
SNB-19 CNS
  TGI: > 100 µM
SNB-75 CNS
  TGI: 38.5 µM
SW-620 colon
  TGI: > 100 µM
T-47D breast
  TGI: > 100 µM
TK-10 renal
  TGI: 43.6 µM
U251 CNS
  TGI: > 100 µM
UACC-257 melanoma
  TGI: > 100 µM
UACC-62 melanoma
  TGI: 73.1 µM
UO-31 renal
  TGI: 54 µM

## O=C(Cc1cc(=O)oc2cc(O)ccc12)N/N=C/c1ccc(N(CCCl)CCCl)cc1
786-0 renal
  TGI: 37.3 µM
A498 renal
  TGI: 41.2 µM
A549 NSCLC
  TGI: 32 µM
ACHN renal
  TGI: 32.7 µM
BT-549 breast
  TGI: 30.8 µM
CAKI-1 renal
  TGI: 31.7 µM
CCRF-CEM leukemia
  TGI: 74.7 µM
COLO 205 colon
  TGI: 72 µM
DU-145 prostate
  TGI: 41 µM
EKVX NSCLC
  TGI: 44.1 µM
HCC-2998 colon
  TGI: > 100 µM
HCT-116 colon
  TGI: 30.2 µM
HCT-15 colon
  TGI: > 100 µM
HL-60(TB) leukemia
  TGI: 37.6 µM
HOP-62 NSCLC
  TGI: 41.4 µM
HOP-92 NSCLC
  TGI: 43.8 µM
HS 578T breast
  TGI: 57.3 µM
HT29 colon
  TGI: 45.1 µM
IGROV1 ovarian
  TGI: 41.9 µM
K-562 leukemia
  TGI: 82.1 µM
KM12 colon
  TGI: > 100 µM
LOX IMVI melanoma
  TGI: 36.4 µM
M14 melanoma
  TGI: 37.8 µM
MALME-3M melanoma
  TGI: 40.9 µM
MCF7 breast
  TGI: 41.8 µM
MDA-MB-231 breast
  TGI: 33.3 µM
MDA-MB-435
  TGI: 47.7 µM
MDA-N
  TGI: 63 µM
MOLT-4 leukemia
  TGI: 94.6 µM
NCI-H226 lung
  TGI: 35 µM
NCI-H23 lung
  TGI: 69.4 µM
NCI-H460 lung
  TGI: 29.4 µM
NCI-H522 lung
  TGI: 45 µM
NCI/ADR-RES ovarian
  TGI: > 100 µM
OVCAR-3 ovarian
  TGI: 33.1 µM
OVCAR-4 ovarian
  TGI: 87.3 µM
OVCAR-5 ovarian
  TGI: 55 µM
OVCAR-8 ovarian
  TGI: 29.4 µM
PC-3 prostate
  TGI: 35.2 µM
RPMI-8226 leukemia
  TGI: 43.6 µM
RXF 393 renal
  TGI: 31 µM
SF-268 CNS
  TGI: 30.4 µM
SF-295 CNS
  TGI: 34.3 µM
SF-539 CNS
  TGI: 35.6 µM
SK-MEL-2 melanoma
  TGI: > 100 µM
SK-MEL-28 melanoma
  TGI: 28.6 µM
SK-MEL-5 melanoma
  TGI: 27.7 µM
SN12C renal
  TGI: 41.3 µM
SNB-19 CNS
  TGI: 42.4 µM
SNB-75 CNS
  TGI: 38.5 µM
SR leukemia
  TGI: 40.5 µM
SW-620 colon
  TGI: > 100 µM
U251 CNS
  TGI: 34.1 µM
UACC-257 melanoma
  TGI: 63.1 µM
UO-31 renal
  TGI: 46.2 µM

From PubChem BioAssay (NCI)
